Data from patent publication US11649255B2, “Indazoles as hematopoietic progenitor kinase 1 (HPK1) inhibitors and methods using same” (1st Biotherapeutics, Inc., priority 2020, dated 2023).
Where two headings read alike, the source gives them in different places.

Key:
[1] = tested on: human peripheral blood pan T cells; assay: IFNγ and IL-2 analysis of human peripheral pan T cells; assay type: cell-based; details: T-cell, CD3/CD28 bead stimulation, 100 nM Prostaglandin E2, 24 hr
Protocol: IFNγ and IL-2 Analysis of Human Peripheral Pan T Cells
Human peripheral blood pan T cells were purchased from STEMCELL™ Technologies Inc. Human peripheral blood pan T cells were thawed and suspended in DMEM media (10% FBS and 10 Penicillin/Streptomycin). 8×10^4 T cells were seeded in 96-well plate and incubated with various concentration of compounds and 100 nM Prostaglandin E2 for 1 hr. T cells were stimulated with Dynabeads Human T-Activator CD3/CD28 (Life Technologies) at a 1:3 cells: beads ratio. […] Data were analyzed with an MESO Quickplex SQ120 (Mesoscale Discovery).
In Table 3, the values represent + for >1000 nM, ++ 200-1,000 nM, +++ for <200 nM and − for not determined.

recombinant human HPK1 = recombinant human HPK1 (Homo sapiens (Human), UniProt Q92918); assay: HPK1 kinase assay (ADP-Glo); assay type: biochemical; details: 25 μM ATP, MBP substrate
recombinant human HPK1, sequence (Q92918 whole entry): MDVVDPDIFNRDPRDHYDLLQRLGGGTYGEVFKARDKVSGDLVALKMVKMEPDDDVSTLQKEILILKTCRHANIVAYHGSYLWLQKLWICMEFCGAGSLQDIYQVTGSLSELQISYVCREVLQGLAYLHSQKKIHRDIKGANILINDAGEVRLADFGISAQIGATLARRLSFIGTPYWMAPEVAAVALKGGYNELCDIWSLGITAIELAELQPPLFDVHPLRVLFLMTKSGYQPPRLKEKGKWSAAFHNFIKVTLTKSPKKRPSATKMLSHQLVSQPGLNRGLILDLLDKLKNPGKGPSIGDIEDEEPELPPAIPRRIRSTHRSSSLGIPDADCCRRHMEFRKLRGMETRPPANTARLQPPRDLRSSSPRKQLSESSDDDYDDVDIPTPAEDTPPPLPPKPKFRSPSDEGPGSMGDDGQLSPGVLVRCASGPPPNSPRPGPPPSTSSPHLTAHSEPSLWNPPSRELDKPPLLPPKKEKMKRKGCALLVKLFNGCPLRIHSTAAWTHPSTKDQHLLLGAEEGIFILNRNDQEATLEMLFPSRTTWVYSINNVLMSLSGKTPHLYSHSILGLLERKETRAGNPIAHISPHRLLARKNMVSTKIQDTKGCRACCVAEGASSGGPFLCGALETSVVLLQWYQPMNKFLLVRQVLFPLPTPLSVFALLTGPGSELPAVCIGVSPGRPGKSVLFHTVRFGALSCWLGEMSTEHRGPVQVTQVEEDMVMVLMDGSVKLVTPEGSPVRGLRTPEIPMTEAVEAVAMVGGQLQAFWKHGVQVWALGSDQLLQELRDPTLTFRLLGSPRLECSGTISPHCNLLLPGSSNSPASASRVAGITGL
Summary of the method: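 Activity was read as ADP formed, detected by ADP-Glo luminescence after the reaction of 5 ng recombinant human HPK1 with MBP and ATP (stocks 0.5 μg/μl and 25 μM) for 40 min at 30 °C. Buffer was Tris pH 7.5 with MgCl2, BSA and DTT, with compound in 0.5% DMSO. IC50 came from inhibition curves.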

[2] = IFNγ secretion, read-out: IFNγ (EC50)
[3] = IL-2 secretion, read-out: IL-2 (EC50)

Row | Compound | EC50 [1, 2] [nM] | EC50 [1, 3] [nM] | IC50 (recombinant human HPK1) [nM]
1 | CC(C)Nc1c(F)c(Cl)c(-c2ccc3nc(NC(=O)[C@@H]4C[C@@H]4F)cn3c2)c2cn[nH]c12 [Example 359, (1S,2S)-N-(6-(5-chloro-6-fluoro-7-(isopropylamino)-1H-indazol-4-yl)imidazo[1,2-a]pyridin-2-yl)-2-fluorocyclopropane-1-carboxamide] | 200 to 1000 | 200 to 1000 | < 100
2 | CSc1c(F)c(SC)c2[nH]ncc2c1-c1ccc2nc(NC(=O)[C@@H]3C[C@@H]3F)sc2n1 [Example 170, (1S,2S)-2-fluoro-N-(5-(6-fluoro-5,7-bis(methylthio)-1H-indazol-4-yl)thiazolo[5,4-b]pyridin-2-yl)cyclopropane-1-carboxamide] | 200 to 1000 | > 1000 | < 100
3 | CCOc1c(F)c(CC)c(-c2ccn3nc(NC(=O)[C@@H]4C[C@@H]4F)cc3c2)c2cn[nH]c12 [Example 531, (1S,2S)-N-(5-(7-ethoxy-5-ethyl-6-fluoro-1H-indazol-4-yl)pyrazolo[1,5-a]pyridin-2-yl)-2-fluorocyclopropane-1-carboxamide] | < 200 | 200 to 1000 | < 100
4 | CCN(C)c1c(F)c(C)c(-c2ccc3nc(NC(=O)[C@@H]4C[C@@H]4F)cn3c2)c2cn[nH]c12 [Example 330, (1S,2S)-N-(6-(7-(ethyl(methyl)amino)-6-fluoro-5-methyl-1H-indazol-4-yl)imidazo[1,2-a]pyridin-2-yl)-2-fluorocyclopropane-1-carboxamide] | 200 to 1000 | 200 to 1000 | –
5 | CSc1c(F)c(SC)c2[nH]ncc2c1-c1ccc2nc(NC(=O)[C@@H]3C[C@@H]3F)sc2c1 [Example 111, (1S,2S)-2-fluoro-N-(6-(6-fluoro-5,7-bis(methylthio)-1H-indazol-4-yl)benzo[d]thiazol-2-yl)cyclopropane-1-carboxamide] | 200 to 1000 | – | –
6 | CC(=O)N(C)c1c(F)c(C)c(-c2ccn3nc(NC(=O)[C@@H]4C[C@@H]4F)cc3c2)c2cn[nH]c12 [Example 550, (1S,2S)-2-fluoro-N-(5-(6-fluoro-5-methyl-7-(N-methylacetamido)-1H-indazol-4-yl)pyrazolo[1,5-a]pyridin-2-yl)cyclopropane-1-carboxamide] | 200 to 1000 | 200 to 1000 | –
7 | CCN(C)c1c(F)c(Cl)c(-c2ccc3nc(NC(=O)[C@@H]4C[C@@H]4F)sc3n2)c2cn[nH]c12 [Example 196, (1S,2S)-N-(5-(5-chloro-7-(ethyl(methyl)amino)-6-fluoro-1H-indazol-4-yl)thiazolo[5,4-b]pyridin-2-yl)-2-fluorocyclopropane-1-carboxamide] | 200 to 1000 | – | –
8 | CSc1c(F)c(C)c(-c2ccn3nc(NC(=O)C4CC4)cc3c2)c2cn[nH]c12 [Example 562, N-(5-(6-fluoro-5-methyl-7-(methylthio)-1H-indazol-4-yl)pyrazolo[1,5-a]pyridin-2-yl)cyclopropanecarboxamide] | 200 to 1000 | – | –
9 | CSc1c(F)c(C)c(-c2ccc3nc(NC(=O)[C@@H]4C[C@@H]4F)sc3n2)c2cn[nH]c12 [Example 173, (1S,2S)-2-fluoro-N-(5-(6-fluoro-5-methyl-7-(methylthio)-1H-indazol-4-yl)thiazolo[5,4-b]pyridin-2-yl)cyclopropane-1-carboxamide] | 200 to 1000 | – | –
10 | CSc1c(F)c(C)c(-c2ccn3nc(NC(=O)[C@H]4C[C@H]4F)cc3c2)c2cn[nH]c12 [Example 574, (1R,2R)-2-fluoro-N-(5-(6-fluoro-5-methyl-7-(methylthio)-1H-indazol-4-yl)pyrazolo[1,5-a]pyridin-2-yl)cyclopropane-1-carboxamide] | 200 to 1000 | 200 to 1000 | –
11 | Cc1c(F)c(S(C)(=O)=O)c2[nH]ncc2c1-c1ccc2nc(NC(=O)[C@@H]3C[C@@H]3F)cn2c1 [Example 270, (1S,2S)-2-fluoro-N-(6-(6-fluoro-5-methyl-7-(methylsulfonyl)-1H-indazol-4-yl)imidazo[1,2-a]pyridin-2-yl)cyclopropane-1-carboxamide] | – | – | 101 to 500
